Assay results as given in ChEMBL document CHEMBL5150073, “Photocaged DNA-Binding Photosensitizer Enables Photocontrol of Nuclear Entry for Dual-Targeted Photodynamic Therapy” (J Med Chem, 2022).

Experiment: Photorelease ability in PBS at pH 7.4 assessed as 3-bromo-2-(4-carbamimidoylphenyl)-1H-indole-6-carboxamidine release by measuring change in emission spectra at 1 uM incubated in presence of CT-DNA and irradiated with 3.1 J/cm^2 mercury lamp light for 20 mins
Type: functional

CC1=CC(C)=[N+]2C1=C(COC(=O)/N=C(\N)c1ccc3c(Br)c(-c4ccc(C(=N)N)cc4)[nH]c3c1)c1c(C)cc(C)n1[B-]2(C)C
Drug metabolism: Metabolite detected
